# According to ChEMBL document CHEMBL4673372, “1,2,3-triazole-thiazole hybrids: Synthesis, in vitro antimicrobial activity and antibiofilm studies” (Bioorg Med Chem Lett, 2021):
# Columns and labels:
# [1] = Selectivity index, ratio of CC50 for human THP-1 cells to MIC for Staphylococcus aureus MTCC 96; format: toxicity
# Staphylococcus aureus [2] = test: Antibacterial activity against Staphylococcus aureus MTCC 96 assessed as inhibition of bacterial growth by microtiter broth dilution method; format: functional
# THP-1 [3] = test: Cytotoxicity against human THP-1 cells assessed as reduction in cell viability at 200 uM by MTT assay; format: cell-based; details: thp-1, 200 µM
# Staphylococcus aureus [4] = test: Antibacterial activity against Staphylococcus aureus MLS16 MTCC 2940 assessed as inhibition of bacterial growth by microtiter broth dilution method; format: functional
# Pseudomonas aeruginosa [5] = test: Antibacterial activity against Pseudomonas aeruginosa MTCC 2453 assessed as inhibition of bacterial growth by microtiter broth dilution method; format: functional
# Raoultella planticola [6] = test: Antibacterial activity against Klebsiella planticola MTCC 530 assessed as inhibition of bacterial growth by microtiter broth dilution method; format: functional
# Staphylococcus aureus [7] = test: Bactericidal activity against Staphylococcus aureus MTCC 96; format: functional
# Escherichia coli [8] = test: Antibacterial activity against Escherichia coli MTCC 739 assessed as inhibition of bacterial growth by microtiter broth dilution method; format: functional
# [9] = Cytotoxicity against human THP-1 cells; format: cell-based
# Bacillus subtilis [10] = test: Antibacterial activity against Bacillus subtilis MTCC 121 assessed as inhibition of bacterial growth by microtiter broth dilution method; format: functional
# THP-1 [11] = test: Cytotoxicity against human THP-1 cells assessed as cell damage at 200 uM by LDH assay; format: cell-based; details: thp-1, 200 µM
# Micrococcus luteus [12] = test: Antibacterial activity against Micrococcus luteus MTCC 2470 assessed as inhibition of bacterial growth by microtiter broth dilution method; format: functional
# Staphylococcus aureus [13] = test: Inhibition of biofilm formation in Staphylococcus aureus MLS16 MTCC 2940 incubated for 24 hrs by crystal violet staining based microtiter plate method; format: functional, organism-based
# Candida albicans = test: Inhibition of biofilm formation in Candida albicans MTCC 3017 incubated for 24 hrs by crystal violet staining based microtiter plate method; format: functional, organism-based
# Escherichia coli [14] = test: Inhibition of biofilm formation in Escherichia coli MTCC 739 incubated for 24 hrs by crystal violet staining based microtiter plate method; format: functional, organism-based
# Staphylococcus aureus [15] = test: Inhibition of biofilm formation in Staphylococcus aureus […] incubated for 24 hrs by crystal violet staining based microtiter plate method; format: functional, organism-based
# Micrococcus luteus [16] = test: Inhibition of biofilm formation in Micrococcus luteus MTCC 2470 incubated for 24 hrs by crystal violet staining based microtiter plate method; format: functional, organism-based
# Bacillus subtilis [17] = test: Inhibition of biofilm formation in Bacillus subtilis MTCC 121 incubated for 24 hrs by crystal violet staining based microtiter plate method; format: functional, organism-based
# Pseudomonas aeruginosa [18] = test: Inhibition of biofilm formation in Pseudomonas aeruginosa MTCC 2453 incubated for 24 hrs by crystal violet staining based microtiter plate method; format: functional, organism-based
# Raoultella planticola [19] = test: Inhibition of biofilm formation in Klebsiella planticola MTCC 530 incubated for 24 hrs by crystal violet staining based microtiter plate method; format: functional, organism-based
# Bacillus subtilis [20] = test: Bactericidal activity against Bacillus subtilis MTCC 121; format: functional
# Micrococcus luteus [21] = test: Bactericidal activity against Micrococcus luteus MTCC 2470; format: functional
# Pseudomonas aeruginosa [22] = test: Bactericidal activity against Pseudomonas aeruginosa MTCC 2453; format: functional
# Raoultella planticola [23] = test: Bactericidal activity against Klebsiella planticola MTCC 530; format: functional
MIC (Staphylococcus aureus [2]) [µM],MIC (Staphylococcus aureus [4]) [µM],MIC (Pseudomonas aeruginosa [5]) [µM],MIC (Escherichia coli [8]) [µM],MIC (Bacillus subtilis [10]) [µM],MIC (Micrococcus luteus [12]) [µM],SMILES,selectivity ratio [1],Activity (THP-1 [3]),MIC (Raoultella planticola [6]) [µM],MBC (Staphylococcus aureus [7]) [µM],CC50 [9] [µM],Activity (THP-1 [11]),MBC (Bacillus subtilis [20]) [µM],further results
> 210,> 210,> 210,> 210,> 210,> 210,CCOc1cccc2cc(-c3csc(N/N=C/c4ccc(OCc5cn(-c6ccc(OC)cc6)nn5)cc4)n3)c(=O)oc12,–,–,> 210,–,–,–,–,IC50 (Staphylococcus aureus [13]): Not Active; IC50 (Candida albicans): Not Active; IC50 (Escherichia coli [14]): Not Active; IC50 (Staphylococcus aureus [15]): Not Active; IC50 (Micrococcus luteus [16]): Not Active; IC50 (Bacillus subtilis [17]): Not Active; IC50 (Pseudomonas aeruginosa [18]): Not Active; IC50 (Raoultella planticola [19]): Not Active
> 259,> 259,> 259,> 259,> 259,> 259,COc1ccc(-n2cc(COc3ccc(/C=N/Nc4nc(-c5ccccc5)cs4)cc3)nn2)cc1,–,–,> 259,–,–,–,–,–
6.1,> 199,> 199,> 199,6.1,> 199,COc1ccc(-n2cc(COc3ccc(/C=N/Nc4nc(-c5cc6cccc(Br)c6oc5=O)cs4)cc3)nn2)cc1,–,–,6.1,12.3,–,–,12.3,"IC50 (Staphylococcus aureus [13]): Not Active; IC50 (Candida albicans): Not Active; IC50 (Escherichia coli [14]): Not Active; IC50 (Staphylococcus aureus [15]; Staphylococcus aureus, MTCC 92, 24 h, read-out: IC50): 32.6 µM; IC50 (Micrococcus luteus [16]): Not Active; IC50 (Bacillus subtilis [17]; Bacillus subtilis, MTCC 121, 24 h, read-out: IC50): 35.4 µM; MBC (Raoultella planticola [23]): 12.3 µM; IC50 (Pseudomonas aeruginosa [18]): Not Active; IC50 (Raoultella planticola [19]; Klebsiella planticola, MTCC 530, 24 h, read-out: IC50): 42.3 µM"

# The remaining lines, values behind:
SMILES,MIC (Staphylococcus aureus [2]) [µM],MIC (Staphylococcus aureus [4]) [µM],MIC (Pseudomonas aeruginosa [5]) [µM],MIC (Escherichia coli [8]) [µM],MIC (Bacillus subtilis [10]) [µM],MIC (Micrococcus luteus [12]) [µM],selectivity ratio [1],Activity (THP-1 [3]),MIC (Raoultella planticola [6]) [µM],MBC (Staphylococcus aureus [7]) [µM],CC50 [9] [µM],Activity (THP-1 [11]),MBC (Bacillus subtilis [20]) [µM],further results
COc1ccc(-n2cc(COc3ccc(/C=N/Nc4nc(-c5ccc(Cl)cc5)cs4)cc3)nn2)cc1,15,> 242,> 242,> 242,> 242,> 242,2.58,Toxic,> 242,30.2,38.7,Toxic,–,–
COc1ccc(-n2cc(COc3ccc(/C=N/Nc4nc(-c5ccc(-c6ccccc6)cc5)cs4)cc3)nn2)cc1,13.9,> 224,> 224,> 224,13.9,> 224,2.58,Toxic,> 224,27.9,35.8,Toxic,27.9,–
COc1ccc(-c2csc(N/N=C/c3ccc(OCc4cn(-c5ccc(OC)cc5)nn4)cc3)n2)cc1,7.6,> 244,> 244,> 244,7.6,> 244,5.13,Toxic,> 244,30.4,39,Toxic,30.4,–
COc1ccc(-n2cc(COc3ccc(/C=N/Nc4nc(-c5ccc([N+](=O)[O-])cc5)cs4)cc3)nn2)cc1,14.7,> 237,14.7,> 237,14.7,14.7,2.58,Toxic,> 237,29.5,37.9,Toxic,29.5,MBC (Micrococcus luteus [21]): 29.5 µM; MBC (Pseudomonas aeruginosa [22]): 59.1 µM
